Data from patent publication US11833149B2, “Pulse dosing regimen and methods of treatment” (OSI Pharmaceuticals, LLC, priority 2016, dated 2023).
“Also recorded” adds a separate entry of the source.

Experiments:
[1] = pH of approximately 2; over the pH range of 1.4 to 9.6; cited from earlier work
[2] = Phase 1 study: pharmacokinetic analysis of plasma (LC-MS/MS); format: in vivo, patients
Method: Pharmacokinetic analysis: Whole-blood samples for plasma were collected at prescheduled time points for pharmacokinetic (PK) analysis. Plasma levels of erlotinib were determined using a validated liquid chromatography-tandem mass spectrometry assay. […] MS detection was using an AB SCIEX API 4000 triple quadrupole mass spectrometer operating in positive ion electrospray ionization (ESI) mode. Standard PK parameters were calculated using a noncompartmental method (WiNNonlin, Pharsight).

[3] = system: EGFR-mutant lung cancers; experiment: Phase 1 study of pulse-continuous erlotinib: response (RECIST 1.1) and progression-free survival; format: in vivo, patients
Method: (§1) The study was registered at clinicaltrials.gov (NCT01967095). […] All patients provided written informed consent.
Prior cytotoxic chemotherapy was allowed. Patients were required to have measurable disease per RECIST (Response Evaluation Criteria in Solid Tumours), version 1.1). […] Patients with clinically stable brain metastases, either treated or untreated, were eligible.
Response assessments: Response to therapy was assessed by interval imaging every 6 weeks with a CT scan with response evaluated per RECIST 1.1. After six cycles on treatment, patients could reduce the radiographic assessments to every 4 cycles (12 weeks).
Statistical Analysis: Descriptive statistics were used to summarize the clinical characteristics of the patients. Progression-free survival was estimated using the Kaplan-Meier method, and defined as the time from start of study therapy until progression or death. […] Response rates were calculated using binomial proportions and exact 95% CIs. All statistical analyses were performed using R 3.2.2 (R Development Core Team) including the “survival” and “Hmisc” packages.

[4] = in vivo
Method: (§2) Toxicity assessments: Patients were assessed five times during cycle 1 (28 days) and then every 21 days thereafter. Patient history, physical examination, complete blood count and serum chemistries were performed at each visit. Toxicity was graded according to the National Cancer Institute Common Terminology Criteria for Adverse Events (NCI CTCAE), version 4.

[5] = cited from earlier work
[6] = system: brain metastases; experiment: Phase 1 study of pulse-continuous erlotinib: central nervous system activity; format: in vivo, patients
From the text: as §1
Central nervous system activity: A brain MRI was required at enrollment.

[7] = Phase 1 dose-escalation study of pulse-continuous erlotinib: DLT, MTD, adverse events
Method: as §2

[8] = cited from earlier work; remark: listed apart in the source
[9] = system: EGFR-mutant lung cancers with CNS involvement; settings: median dose erlotinib 1500 mg once weekly (Grommes et al.); cited from earlier work
[10] = erlotinib 1500 mg once weekly (Clarke et al.)

## C#Cc1cccc(Nc2ncnc3cc(OCCOC)c(OCCOC)cc23)c1.Cl [Erlotinib hydrochloride]
[1]
  maximal aqueous solubility: approximately 0.4 mg/mL

## C#Cc1cccc(Nc2ncnc3cc(OCCOC)c(OCCO)cc23)c1 [OSI-420]
[2]; in vivo
  dose-dependence of metabolite with increasing pulse doses of erlotinib: no significant dose-dependence

## C#Cc1cccc(Nc2ncnc3cc(OCCOC)c(OCCOC)cc23)c1 [erlotinib, N-(3-ethynylphenyl)-6,7-bis(2-methoxyethoxy)-4-quinazolinamine]
[3]; 34 patients
  patients with complete response: one
  patients with confirmed partial responses: Twenty-four
[3]; 95% CI 5.8-15.4 months
  median progression-free survival: 9.9 months
[3]; intent to treat, 34 patients, 95% CI 60-84%
  overall response rate: 74%
[3]; patients with radiographic assessment
  change in the sum of target lesions: All patients had a decrease
[4]; human
  ALT elevated Grade 1 (% of patients): (18%)
  ALT elevated Grade 1 (patients): 6
  ALT elevated Grade 2 (% of patients): (3%)
  ALT elevated Grade 2 (patients): 1
  ALT elevated Grade 3 (% of patients): (3%)
  ALT elevated Grade 3 (patients): 1
  ALT elevated Grade 4 (patients): 0
  ALT elevated Total (any grade) (% of patients): (24%)
  ALT elevated Total (any grade) (patients): 8
  AST increased Grade 1 (% of patients): (15%)
  AST increased Grade 1 (patients): 5
  AST increased Grade 2 (% of patients): (3%)
  AST increased Grade 2 (patients): 1
  AST increased Grade 3 (patients): 0
  AST increased Grade 4 (patients): 0
  AST increased Total (any grade) (% of patients): (18%)
  AST increased Total (any grade) (patients): 6
  Alopecia Grade 1 (% of patients): (21%)
  Alopecia Grade 1 (patients): 7
  Alopecia Grade 2 (patients): 0
  Alopecia Grade 3 (patients): 0
  Alopecia Grade 4 (patients): 0
  Alopecia Total (any grade) (% of patients): (21%)
  Alopecia Total (any grade) (patients): 7
  Anemia Grade 1 (% of patients): (6%)
  Anemia Grade 1 (patients): 2
  Anemia Grade 2 (% of patients): (3%)
  Anemia Grade 2 (patients): 1
  Anemia Grade 3 (% of patients): (3%)
  Anemia Grade 3 (patients): 1
  Anemia Grade 4 (patients): 0
  Anemia Total (any grade) (% of patients): (12%)
  Anemia Total (any grade) (patients): 4
  Anorexia Grade 1 (% of patients): (9%)
  Anorexia Grade 1 (patients): 3
  Anorexia Grade 2 (% of patients): (6%)
  Anorexia Grade 2 (patients): 2
  Anorexia Grade 3 (patients): 0
  Anorexia Grade 4 (patients): 0
  Anorexia Total (any grade) (% of patients): (15%)
  Anorexia Total (any grade) (patients): 5
  Bilirubin increased Grade 1 (% of patients): (12%)
  Bilirubin increased Grade 1 (patients): 4
  Bilirubin increased Grade 2 (% of patients): (15%)
  Bilirubin increased Grade 2 (patients): 5
  Bilirubin increased Grade 3 (% of patients): (6%)
  Bilirubin increased Grade 3 (patients): 2
  Bilirubin increased Grade 4 (patients): 0
  Bilirubin increased Total (any grade) (% of patients): (32%)
  Bilirubin increased Total (any grade) (patients): 11
  Diarrhea Grade 1 (% of patients): (71%)
  Diarrhea Grade 1 (patients): 24
  Diarrhea Grade 2 (% of patients): (3%)
  Diarrhea Grade 2 (patients): 1
  Diarrhea Grade 3 (% of patients): (12%)
  Diarrhea Grade 3 (patients): 4
  Diarrhea Grade 4 (patients): 0
  Diarrhea Total (any grade) (% of patients): (85%)
  Diarrhea Total (any grade) (patients): 29
  Dry skin Grade 1 (% of patients): (29%)
  Dry skin Grade 1 (patients): 10
  Dry skin Grade 2 (patients): 0
  Dry skin Grade 3 (patients): 0
  Dry skin Grade 4 (patients): 0
  Dry skin Total (any grade) (% of patients): (29%)
  Dry skin Total (any grade) (patients): 10
  Fatigue Grade 1 (% of patients): (24%)
  Fatigue Grade 1 (patients): 8
  Fatigue Grade 2 (% of patients): (12%)
  Fatigue Grade 2 (patients): 4
  Fatigue Grade 3 (patients): 0
  Fatigue Grade 4 (patients): 0
  Fatigue Total (any grade) (% of patients): (35%)
  Fatigue Total (any grade) (patients): 12
  Mucositis Grade 1 (% of patients): (24%)
  Mucositis Grade 1 (patients): 8
  Mucositis Grade 2 (% of patients): (9%)
  Mucositis Grade 2 (patients): 3
  Mucositis Grade 3 (% of patients): (3%)
  Mucositis Grade 3 (patients): 1
  Mucositis Grade 4 (patients): 0
  Mucositis Total (any grade) (% of patients): (35%)
  Mucositis Total (any grade) (patients): 12
  Nausea Grade 1 (% of patients): (29%)
  Nausea Grade 1 (patients): 10
  Nausea Grade 2 (% of patients): (9%)
  Nausea Grade 2 (patients): 3
  Nausea Grade 3 (% of patients): (6%)
  Nausea Grade 3 (patients): 2
  Nausea Grade 4 (patients): 0
  Nausea Total (any grade) (% of patients): (44%)
  Nausea Total (any grade) (patients): 15
  Paronychia Grade 1 (% of patients): (12%)
  Paronychia Grade 1 (patients): 4
  Paronychia Grade 2 (% of patients): (6%)
  Paronychia Grade 2 (patients): 2
  Paronychia Grade 3 (patients): 0
  Paronychia Grade 4 (patients): 0
  Paronychia Total (any grade) (% of patients): (18%)
  Paronychia Total (any grade) (patients): 6
  Pruritis Grade 1 (% of patients): (32%)
  Pruritis Grade 1 (patients): 11
  Pruritis Grade 2 (patients): 0
  Pruritis Grade 3 (patients): 0
  Pruritis Grade 4 (patients): 0
  Pruritis Total (any grade) (% of patients): (32%)
  Pruritis Total (any grade) (patients): 11
  Rash Grade 1 (% of patients): (62%)
  Rash Grade 1 (patients): 21
  Rash Grade 2 (% of patients): (24%)
  Rash Grade 2 (patients): 8
  Rash Grade 3 (% of patients): (3%)
  Rash Grade 3 (patients): 1
  Rash Grade 4 (patients): 0
  Rash Total (any grade) (% of patients): (88%)
  Rash Total (any grade) (patients): 30
  Vomiting Grade 1 (% of patients): (26%)
  Vomiting Grade 1 (patients): 9
  Vomiting Grade 2 (% of patients): (3%)
  Vomiting Grade 2 (patients): 1
  Vomiting Grade 3 (% of patients): (3%)
  Vomiting Grade 3 (patients): 1
  Vomiting Grade 4 (patients): 0
  Vomiting Total (any grade) (% of patients): (32%)
  Vomiting Total (any grade) (patients): 11
  patients removed for diarrhea: 2
  patients removed for hyperbilirubinemia: 1
  patients removed for mucositis: 1
  patients removed for possible pneumonitis: 1
  patients removed for transaminitis: 1
[4]
  patients removed from the study for toxicity: Six
  patients requiring a dose reduction of the pulse dose: three of sixteen
  tolerability: well tolerated
[2]; 600 mg to 1,350 mg, Cycle 1
  change of peak plasma concentration with increasing pulse doses: no significant increases
[2]; 4 hr post-administration, Week 2
  range of peak plasma concentration: 2,600-9355 ng/mL
[2]; 4 hr post-administration, after the second day of weekly pulse dose at Week 2
  median peak plasma concentration: 5,393 ng/mL
[2]; before the pulse dosing at the start of week 4
  median plasma trough concentration: 435 ng/mL
[2]; start of week 4
  median plasma trough concentration: 1.1 µM
  range of plasma trough concentration: 29 to 1655 ng/mL
[5]; once weekly, unselected patients with advanced lung cancers (Milton et al.), MTD not reached
  maximum tolerated dose (MTD): ≥ 2000 mg
[5]; twice-weekly pulse dose (Chia et al.), DLT of rash at higher dose levels
  MTD: 1000 mg
[6]; 6 patients with untreated brain metastases
  patients with evidence of tumor regression in the CNS: 6
[6]; 16 patients with CNS imaging within three months of coming off study for progression
  radiographic evidence of new or progressing brain metastases: none
[6]; all patients
  CNS progression on study treatment: none of the patients; also recorded: No patients
[7]; all 34 patients
  deaths on study: no deaths
  grade four or five toxicities: No grade four or five toxicities
[7]; pulse on days 1 and 2 with 50 mg erlotinib on days 3 to 7
  MTD (pulse dose): 1200 mg
[8]; Togashi et al.
  cerebrospinal fluid (CSF) concentration as % of plasma concentration: 3-5%
[8]; [10]
  concurrent CSF concentration: 120 nM
  peak plasma concentration: 11,300 nM
[9]
  patients with partial response in the CNS: Six of nine
